“And” between values parts separate entries of the source, which are not always exact repeats. Identical values can stand only once. Like-named read-outs stand apart in the source and are kept apart here. One block for each molecule: values may come before it.
How the values were obtained:
[1] = target: T1, human somatostatin type 2 receptor (SSTR2) (Homo sapiens, UniProt P30874); details: read-out: SSTR2 agonist activity cAMP, EC50; cited from earlier work
[2] = test system: NFPAs in heterozygous POMC KO mice; experiment: Study 2: TBR-760 vs individual DA and SST agonists on pituitary tumor growth; type: in vivo, mouse
Text: (§1) Wild-type mice (3 male, 3 female) at age 6 months were scanned by MRI to determine average normal pituitary size. Heterozygous POMC KO mice were screened using MRI starting at average age 6.5 months (range, 5.5-9.5 months). These screening scans served to select animals for the study once reaching the baseline tumor volume of 10 mm^3 and to ensure reasonably homogenous groups. Most animals developed tumors within an average of 1.5 months after their first scan and at that point were randomly assigned to experimental groups. Two studies were conducted, the first comparing several doses of TBR-760 vs vehicle, and a second study comparing a fully effective dose of TBR-760 vs the molar equivalent and the 10× molar equivalent (based on the dose of TBR-760) of a pure SST agonist (BIM-23023), a pure DA agonist (BIM-53097), and the combination of the two. The concentration of the DA agonist was doubled to reflect the 2:1 ratio of DA:SST moieties present in TBR-760.
(§2) All groups were composed of 3 males and 3 females, with the exception of the vehicle- and TBR-760-treated groups (n = 8, 4 males/4 females) of the second study, which were maintained for survival analysis as described later. Once entered into the study, all mice received MRI scans for baseline, followed by scans at 2 weeks, 1 month, and 2 months after the baseline scan. Once tumor volume reached 10 mm^3 in the heterozygous POMC KO mice, the mice were treated by daily subcutaneous injection, with each injection given at the same approximate time of day. The mice were euthanized 8 weeks after start of treatment (ie, after the last scan), and pituitary tissue was collected, weighed, and flash-frozen, with the exception of the TBR-760 and vehicle-treated groups in the second study, which were maintained for survival analysis.
(§3) All studies were conducted on a Bruker 7T/210 mm Biospec system (Bruker) at the Duke Center for In Vivo Microscopy. The initial screening scans, conducted at age 6 months in wild-type mice, and average age 6.5 months (range, 5.5-9.5 months) in heterozygous POMC KO mice, were fast scans with scan times of 4 minutes (rapid acquisition with refocused echoes [RARE], repetition time [TR] = 1 second, echo time [TE] = 50 ms; 100 μm × 100 μm × 0.4 mm). Images were analyzed in ImageJ ([36]). Treatment monitoring MRI scans were carried out at 2 weeks, 1 month, and 2 months after start of treatment. For all monitoring scans, parameters were 40-minute scan time (RARE; TR = 5 seconds, TE = 50 ms; 100 μm × 100 μm × 0.3 mm). All scans included complete sectional scans of the pituitary, which were used to calculate tumor volume. MR images were preprocessed using bias field correction to account for the sensitivity profile of the receive coil, thus enhancing the tumor contrast. A trained analyst then manually segmented the tumor on each slice of the MRI. Volume of the tumor was then calculated by multiplying the area of the segmentation by the slice thickness for each slice of the image.
To compare the ability of TBR-760 to arrest aggressive pituitary tumor growth in the POMC KO mouse model vs its individual SST or DA components, either alone or in combination, heterozygous POMC KO mice were again randomly assigned to treatment groups when they presented with tumors approximately 10 mm^3 in size as determined by MRI. […]

SSTR4 = target: SSTR4; design: method as in earlier work; details: read-out: binding affinity for SSTR4; cited from earlier work
[3] = Subcutaneous pharmacokinetics, plasma by HPLC-MS/MS; type: in vivo; details: mouse, 4 mg/kg sc, POMC KO mice, n = 4
Experimental: To study and compare the pharmacokinetic behavior of TBR-760, the DA analogue BIM-53097 and the SST analogue BIM-23023 solutions with appropriate concentrations were prepared as described earlier and mice were injected subcutaneously at time 0 with a dose of 4 mg/kg. Blood samples were collected at 15 and 30 minutes, and 1, 2, 4, 6, 8 and 24 hours after injection, and processed to obtain plasma. The determination of TBR-760, BIM-23023, or BIM-53097 was based on 100 μL plasma volume and was carried out by high-pressure liquid chromatography tandem mass spectrometry (HPLC-MS/MS) after protein precipitation with acetonitrile and subsequent solid-phase extraction. HPLC-MS/MS was performed on an AB SCIEX API 4000 LC-MS/MS with electrospray ionization operated in multiple-reaction monitoring mode for the analysis (Waters Corporation). Pharmacokinetic parameters were calculated by noncompartmental analyses using WinNonLin (version 5.2).

SSTR1 = target: SSTR1; design: method as in earlier work; details: read-out: binding affinity for SSTR1; cited from earlier work
residual NFPAs = test system: residual NFPAs; design: method as in PMID 30540568; details: after 24 months, cited from earlier work
[4] = target: T2, human dopamine type 2 receptor (D2R) (Homo sapiens, UniProt P14416); experiment: D2R agonist activity, cAMP; type: cell-based; details: internal Tiburio data
T2 sequence (P14416 whole entry): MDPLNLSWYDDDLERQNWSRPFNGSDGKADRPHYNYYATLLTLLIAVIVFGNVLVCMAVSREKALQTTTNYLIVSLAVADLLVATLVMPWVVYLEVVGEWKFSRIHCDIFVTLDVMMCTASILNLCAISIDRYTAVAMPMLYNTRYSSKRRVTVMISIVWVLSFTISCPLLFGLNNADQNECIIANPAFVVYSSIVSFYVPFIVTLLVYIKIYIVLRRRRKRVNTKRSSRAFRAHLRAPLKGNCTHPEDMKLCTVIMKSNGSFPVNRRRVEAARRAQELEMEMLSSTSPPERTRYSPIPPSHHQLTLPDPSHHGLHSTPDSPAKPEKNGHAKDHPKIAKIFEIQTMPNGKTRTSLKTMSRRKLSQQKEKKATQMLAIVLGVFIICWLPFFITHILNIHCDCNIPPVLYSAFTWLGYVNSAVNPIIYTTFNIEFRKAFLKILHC
Experimental: Table 1. Receptor binding affinity and agonist activity at human dopamine type 2 and somatostatin type 2 | column: D2R agonist activity cAMP, EC50 nM

[5] = target: T2, human dopamine type 2 receptor (D2R); experiment: D2R receptor binding affinity; details: internal Tiburio data
Text: Table 1. Receptor binding affinity and agonist activity at human dopamine type 2 and somatostatin type 2 | column: D2R binding, Ki nM

[6] = target: T1, human somatostatin type 2 receptor (SSTR2); experiment: SSTR2 agonist activity, cAMP; type: cell-based; details: internal Tiburio data
Experimental: Table 1. Receptor binding affinity and agonist activity at human dopamine type 2 and somatostatin type 2 | column: SSTR2 agonist activity cAMP, EC50 nM

[7] = test system: NFPAs in heterozygous POMC KO mice; experiment: Study 1: TBR-760 dose comparison on pituitary tumor growth (MRI volume, tumor weight); type: in vivo, mouse; details: mean ± SEM; for tumor volume after 8 weeks of treatment: vehicle 72.5 ± 5.9; for tumor weight after 8 weeks of treatment: vehicle 36 ± 7.4
Text: as §1, §2, §3
At that time, treatment was initiated with daily subcutaneous injections of either vehicle or 0.125, 1.25, or 12.5 mg/kg of TBR-760 for 8 weeks. […] The dramatic difference in tumor growth between vehicle- and TBR-760–treated mice was further confirmed by visual comparison and measurement of weights of pituitaries on death of the mice (Fig. 7B and 7C).

[8] = test system: NFPAs in heterozygous POMC KO mice; experiment: Survival analysis of tumor-bearing mice; type: in vivo, mouse; details: TBR-760 1 mg/kg/day, at euthanasia; vehicle 45.76 ± 6.28
Text: In the second study, the survival of TBR-760–treated mice was examined and compared with vehicle-treated mice. After the initial 8-week treatment period was complete, vehicle-treated mice were paired with TBR-760–treated mice, and treatment continued as before. When a vehicle-treated mouse died, its TBR-760-treated mouse partner continued to receive treatment for an additional 8 weeks before being euthanized. On death or euthanasia, pituitaries were collected, weighed, and flash-frozen.
Statistical analysis was performed using PRISM8 (GraphPad 2018). An ANOVA was performed followed by post hoc analysis with Dunnett’s multiple comparisons test. Results are expressed as mean ± SEM. P less than .05 was considered statistically significant. Survival analysis was performed using PRISM8 using the Gehan-Breslow-Wilcoxon test to compare the survival curves.

[9] = target: T1, human somatostatin type 2 receptor (SSTR2); experiment: SSTR2 receptor binding affinity; details: internal Tiburio data
Text: Table 1. Receptor binding affinity and agonist activity at human dopamine type 2 and somatostatin type 2 | column: SSTR2 binding, Ki nM

[10] = test system: cultured human NFPA cells; design: method as in PMID 18509006; details: in vitro; cited from earlier work

T1 sequence (P30874 whole entry): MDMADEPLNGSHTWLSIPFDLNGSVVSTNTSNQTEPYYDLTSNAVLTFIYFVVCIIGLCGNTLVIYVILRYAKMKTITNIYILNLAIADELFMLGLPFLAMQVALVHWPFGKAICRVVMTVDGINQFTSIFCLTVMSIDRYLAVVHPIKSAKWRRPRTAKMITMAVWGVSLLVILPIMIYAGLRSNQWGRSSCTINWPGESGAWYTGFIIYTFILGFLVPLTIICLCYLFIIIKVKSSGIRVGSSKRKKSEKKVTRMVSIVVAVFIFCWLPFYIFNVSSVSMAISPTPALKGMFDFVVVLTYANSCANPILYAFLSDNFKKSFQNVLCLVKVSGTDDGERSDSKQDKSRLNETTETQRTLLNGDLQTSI

SMILES: CC[C@@H]1NC(=O)[C@H](CCCCN)NC(=O)[C@@H](Cc2c[nH]c3ccccc23)NC(=O)[C@H](Cc2ccc(O)cc2)NC(=O)[C@@H](NC(=O)[C@H](N)Cc2ccccc2)CSSC[C@@H](C(=O)N[C@H](C(N)=O)[C@@H](C)O)NC1=O [BIM-23023, reference compound]
- EC50 [1]: 0.14 nM
- pituitary weight vs untreated, tumor-bearing controls ([2]; after 8 weeks of treatment): not significantly different
- effect on tumor growth vs vehicle ([2]; either dose (1 or 10 mg/kg) daily sc, 8 weeks): failed to show significant effects on tumor growth
- Ki (SSTR4): > 1000 nM
- AUC(0-inf) [3]: 2860 ng·h/mL
- Cmax [3]: 2300 ng/mL
- Tmax [3]: 0.25 h
- half-life [3]: 0.59 h
- Ki (SSTR1): > 1000 nM

- EC50 [4]: 0.026 nM
- Ki [5]: 0.8 nM
SMILES: C=CCN1C[C@H](C(=O)N(CCCN(C)C)C(=O)NCC)C[C@@H]2c3cccc4[nH]cc(c34)C[C@H]21 [Cabergoline]
- patients with significant tumor shrinkage (residual NFPAs; nonintervention group 10.5%): 28.8%
- patients with tumor growth (residual NFPAs; nonintervention group 15.8%): 5.1%
- patients with stabilization of tumor (residual NFPAs; nonintervention group 73.7%): 66.1%

SMILES: CCCN1C[C@H](CSCC(=O)NCCCC[C@@H](NC(=O)CSC[C@@H]2C[C@@H]3c4cccc5[nH]cc(c45)C[C@H]3N(CCC)C2)C(=O)N[C@H]2CSSC[C@@H](C(=O)N[C@H](C(N)=O)[C@@H](C)O)NC(=O)[C@H](CC)NC(=O)[C@H](CCCCN)NC(=O)[C@@H](Cc3c[nH]c4ccccc34)NC(=O)[C@H](Cc3ccc(O)cc3)NC2=O)C[C@@H]2c3cccc4[nH]cc(c34)C[C@H]21 [TBR-760]
- EC50 [6]: 1.22 nM
- tumor volume after 8 weeks of treatment ([7]; 0.125 mg/kg daily sc): 16.5 ± 2.6 mm^3
- tumor weight after 8 weeks of treatment ([7]; 0.125 mg/kg daily sc): 5.4 ± 0.67 mg
- tumor volume after 8 weeks of treatment ([7]; 1.25 mg/kg daily sc): 10.9 ± 1.1 mm^3
- tumor weight after 8 weeks of treatment ([7]; 1.25 mg/kg daily sc): 5.0 ± 0.61 mg
- tumor volume after 8 weeks of treatment ([7]; 12.5 mg/kg daily sc): 12.3 ± 1.0 mm^3
- tumor weight after 8 weeks of treatment ([7]; 12.5 mg/kg daily sc): 4.8 ± 0.61 mg
- tumor volume after 8 weeks of treatment ([2]; 1 mg/kg/day sc, 8 weeks, mean ± SEM, vehicle 54.6 ± 10.6): 8.5 ± 1.3 mm^3
- proportion of treated mice with tumor shrinkage ([2]; TBR-760 1 mg/kg/day sc): 20%
- mean tumor volume reduction in mice whose tumors shrank ([2]; TBR-760 1 mg/kg/day sc, 1 mg/kg/day): 44.7% and 45%
- final tumor weight [8]: 5.42 ± 0.52 mg
- Ki (SSTR4): > 1000 nM
- Ki [9]: 0.01 nM
- EC50 [4]: 0.064 nM
- proportion of NFPAs examined with significant inhibition of cell proliferation [10]: approximately 60%
- AUC(0-inf) [3]: 1880 ng·h/mL
- Cmax [3]: 354 ng/mL
- Tmax [3]: 2 h
- half-life [3]: 2.56 h
- Ki (SSTR1): 843 nM
- Ki [5]: 12.1 nM

Reference: article PMC7375803, “TBR-760, a Dopamine-Somatostatin Compound, Arrests Growth of Aggressive Nonfunctioning Pituitary Adenomas in Mice” (Endocrinology, 2020)
